Measured values taken from patent publication US12522580B2, “Fluorine-containing pyrimidine compounds, harmful fungus control agent, and method for producing fluorine-containing pyrimidine compounds” (UNIMATEC CO., LTD., priority 2021, dated 2026).

Assays:
cucumber powdery mildew = experiment: Evaluation test for powdery mildew of cucumbers (cucumber leaf disc); type: in vivo; conditions: blotch area after 12 days, 25° C.
Procedure: A fluorine-containing pyrimidine compound prepared in Examples 12, 13 or 15 was dissolved in acetone and diluted to a concentration of 500 ppm. Subsequently, a cucumber leaf disc (diameter 20 mm) was placed in a diluted acetone solution and completely wetted. The cucumber leaf disc was then placed so that the back surface of the cucumber leaf disc contacted a separately prepared plain agar medium, and air-dried. After air-drying, a cucumber powdery mildew spore suspension was evenly sprayed on the cucumber leaf disc and air-dried. The cucumber leaf disc was then allowed to stand in an incubator (25° C., illuminated for 12 hours), and after 12 days, the blotch area was examined to calculate the control value. The control value was calculated according to the following formula. In the following formula, “untreated” means that the cucumber leaf disc was wetted with only acetone as the test solution, and “untreated section” represents the corresponding section. A fluorine-containing pyrimidine compound prepared in Examples 12, 13 or 15 was dissolved in acetone and diluted to a concentration of 100 ppm. Subsequently, a cucumber leaf disc (diameter 20 mm) was placed in a diluted acetone solution and completely wetted. The cucumber leaf disc was placed so that the back surface of the cucumber leaf disc contacted a separately prepared plain agar medium, and air-dried. After air-drying, a cucumber powdery mildew spore suspension was evenly prayed on the cucumber leaf disc and air-dried. The cucumber leaf disc was then allowed to stand in an incubator (25° C., illuminated for 12 hours), and after 12 days, the blotch area was examined to calculate the control value. The control value was calculated according to the following formula. In the following formula, “untreated” means that the cucumber leaf disc was wetted with only acetone as the test solution, and “untreated section” represents the corresponding section. [formula] (Evaluation Test for Gray Mold (500 ppm))

[1] = system: Gray mold germs (Botrytis cinerea, strain 2018105); experiment: Evaluation test for gray mold (mycelial growth on PDA medium); type: cell-based; conditions: final concentration 500 ppm in PDA medium; mycelia diameter after two days at 27° C.; average of 3
Procedure: The fluorine-containing pyrimidine compound prepared in Example 1, 2, 3, 4, 12 or 16 was dissolved in DMSO and diluted to a concentration of 50000 ppm. To 3 ml of a dissolved PDA medium, 30 μL of diluted DMSO solution each was added and stirred with a pipette. The mixture was placed in a well of a 6-well plate and allowed to solidify (final concentration: 500 ppm, repeated 3 times each). Gray mold germs (Botrytis cinerea, strain 2018105) grown in a PDA medium was cut out together with the medium with a biopsy punch having a diameter of 0.4 cm, and placed on the center of the PDA medium in the 6-well plate containing the DMSO solution so as to be grown at 27° C. After two days, the diameters of mycelia were measured and the control value was calculated. The control value was calculated according to the following formula. In the formula described below, “untreated” represents PDA medium to which only DMSO was added as the test solution. [formula]

| SMILES | Control value (cucumber powdery mildew; 100 ppm in acetone) | Control value (cucumber powdery mildew; 500 ppm in acetone) | Control value [1] |
| --- | --- | --- | --- |
| COc1nc(-c2ccccn2)nc(Nc2ccc(Cl)cc2)c1C(F)(F)F [Example 13, N-(4-chlorophenyl)-6-methoxy-2-(2-pyridyl)-5-(trifluoromethyl)-4-pyrimidinamine] | 80.0 | 98.8 | – |
| FC(F)(F)c1c(Cl)nc(-c2ccccn2)nc1Nc1ccccc1 [Example 16, 6-chloro-N-phenyl-2-(2-pyridyl)-5-(trifluoromethyl)-4-pyrimidinamine] | – | – | 92.4 |
| CCCCc1ccc(Nc2nc(-c3ccccn3)nc(OC)c2C(F)(F)F)cc1 [Example 3, N-(4-butylphenyl)-6-methoxy-2-(2-pyridyl)-5-(trifluoromethyl)-4-pyrimidinamine] | – | – | 76.9 |
| COc1nc(-c2ccccn2)nc(Nc2ccc(C)cc2)c1C(F)(F)F [Example 15, 6-methoxy-N-(4-methylphenyl)-2-(2-pyridyl)-5-(trifluoromethyl)-4-pyrimidinamine] | 100.0 | 100.0 | – |
| COc1nc(-c2ccccn2)nc(Nc2cccc(C)c2)c1C(F)(F)F [Example 2, 6-methoxy-N-(3-methylphenyl)-2-(2-pyridyl)-5-(trifluoromethyl)-4-pyrimidinamine] | – | – | 86.8 |
| COc1nc(-c2ccccn2)nc(Nc2ccccc2)c1C(F)(F)F [Example 1, 6-methoxy-N-phenyl-2-(2-pyridyl)-5-(trifluoromethyl)-4-pyrimidinamine] | – | – | 90.5 |
| COc1nc(-c2ccccn2)nc(Nc2ccc(C)cc2C)c1C(F)(F)F [Example 12, 6-methoxy-N-(2,4-dimethylphenyl)-2-(2-pyridyl)-5-(trifluoromethyl)-4-pyrimidinamine] | 91.8 | 100.0 | 94.3 |
| COc1nc(-c2ccccn2)nc(Nc2ccc(C)c(C)c2)c1C(F)(F)F [Example 4, 6-methoxy-N-(3,4-dimethylphenyl)-2-(2-pyridyl)-5-(trifluoromethyl)-4-pyrimidinamine] | – | – | 86.8 |
